Test results as given in publication PMC12677653, “Inhibition of Tumor Lipogenesis and Growth by Peptide‐Based Targeting of SREBP Activation” (Advanced Science, 2025).

Key:
SREBP1 activity = experiment: SRE luciferase assay; assay type: cell-based, human; settings: Huh7 cells, peptide 15 µM 1 h, IGF1 100 ng/mL 14 h, normalized to β-galactosidase, n = 3
SREBP2 = experiment: Immunofluorescence of SREBP2 nuclear translocation; assay type: cell-based, human; settings: Huh7 cells, peptide 15 μM, IGF1 100 ng/mL 8 h
Description: For endogenous SREBP1 and SREBP2 staining, the cells were washed with ice‐cold PBS and fixed with 4% paraformaldehyde in PBS at room temperature (around 20–25 °C) for 15 min. Then, the cells were treated with 0.1% Triton X‐100 for 5 min and blocked in 3% BSA for 1 h at room temperature. The cells were then incubated with primary antibody against SREBP1 (diluted 1:200) or SREBP2 (diluted 1:200) overnight at 4 °C. After incubation with fluorescent‐dye‐conjugated secondary antibody (diluted 1:1000; Thermo Fisher Scientific) in PBS containing 0.05% saponin, 5% goat serum and 0.5% BSA for 1 h at room temperature followed by DAPI (diluted 1:10 000; Thermo Fisher Scientific) staining of the cell nucleus for 10 min. Cells were examined using a laser confocal microscope (Zeiss LSM 900).
a) Following pretreatment with Insig1/2 loop 1 peptide (15 μM) and IGF1 stimulation (100 ng ml⁻¹, 8 h), Huh7 cells were subjected to immunofluorescence analysis (scale bar: 10 μm).

Hep3B cells = experiment: Triglyceride (TG) detection assay, Hep3B; assay type: cell-based, human; settings: peptide 25 μM, IGF1 100 ng/mL 24 h, n = 3
Description: Cells were harvested and processed for triglyceride (TG) quantification using the Amplex Red Triglyceride Assay Kit (Beyotime, Catalog No. S0129S) according to the manufacturer's instructions. Briefly, collect 1 million cells and add 200 µL of isopropanol. Centrifuge at 12 000 × g for 3–5 min at 4 °C, and collect the supernatant for subsequent analysis. Dilute the supernatant tenfold with assay buffer, and then add 50 µL of the diluted sample to a 96‐well black plate, add 2 µL of lipase, and mix thoroughly. Incubate at 37 °C for 20 min. Then, add 50 µL of the triglyceride detection working solution and mix well, incubate at 37 °C for 60 min in the dark. Set the excitation wavelength to 560 nm and the emission wavelength to 590 nm to measure the fluorescence intensity.
f) Intracellular triglyceride (TG) content was quantified in Hep3B cells pretreated with Insig1/2 loop 1 peptide (25 μM) and stimulated with IGF1 (100 ng ml⁻¹) for 24 h.

[1] = test system: lipid accumulation in tumor tissues; experiment: Oil Red O staining of tumor tissues; assay type: in vivo, BALB/c athymic nude mice; settings: cryosections of Huh7 tumors, n = 4; peptide given as LNP 10 mg/kg iv; lenvatinib mesylate 2 mg/kg oral
Description: Representative micrographs are shown (scale bar: 20 µm). b,c) Cryosections of mouse tumor tissues were prepared for histological analysis. (b) Lipid accumulation was assessed by Oil Red O staining. Representative micrographs are shown (scale bar: 20 µm). (c) Apoptotic cells were detected by TUNEL assay. Representative micrographs are shown (scale bar: 20 µm). d,e) Quantitative analysis of (d) apoptotic areas (TUNEL‐positive regions) and (e) lipid droplet counts (Oil Red O‐positive particles) was performed. Data represent the mean ± SD (n = 4). Statistical significance was determined by one‐way analysis of variance (ANOVA). ** p < 0.01, **** p < 0.0001, ns, no significance.
Cryosections 6–8 µm in thickness were air‐dried and fixed with formaldehyde for 5–10 min. Then, the slides were placed in absolute propylene glycol for 2–5 min and stained with 0.5% Oil red O dye. After staining, the slides were rinsed, counterstained with Mayer's hematoxylin for 1 min, and mounted in glycerin.

Sequence: RKKRRQRRRLYPCIDSHLGEPHKFKRE [Insig1/2 loop 1 peptide]
- SREBP1 activity (SRE luciferase) (SREBP1 activity): markedly inhibited
- IGF1-induced nuclear translocation of SREBP2 (SREBP2): inhibited
- IGF1-induced increase in triglycerides (TGs) (Hep3B cells): reduced
- lipid accumulation in tumor tissues (Oil Red O) [1]: reduced lipid accumulation in tumor tissues
